Assay results from patent publication US20140140969A1, “METHODS AND COMPOSITIONS FOR MUSCULAR DYSTROPHIES” (Sangamo BioSciences, Inc., priority 2012, published 2014).

What was measured:
[1] = tested on: CCR5-specific ZFN pair (exon 3) (artificial); experiment: cell_activity; conditions: Cel-1 assay in human myoblasts; cleavage over 30%
human myoblasts = experiment: In vitro selection of MGMT^P140K-2A-GFP gene-targeted myoblasts with BG/BCNU; type: cell-based
Source text: Consequently, we next verified whether expression from the integrated MGMT^P140K gene, along with the eGFP reporter gene to facilitate tracking of transduced cells, was sufficient to confer myoblasts protection against treatments with BG and BCNU (FIG. 4A). Using IDLV to deliver a MGMT^P140K-eGFP template DNA flanked by CCR5 homology arms, we obtained 40-50% gene addition in myoblasts in the absence of drug selection (FIG. 4B and C). However, to fully evaluate the selection potential of the BG/BCNU combination, we thought it would be more appropriate to work with a population containing a much lower level of gene addition. As such, we generated two populations of gene-targeted myoblasts containing either 3% or 35% of cells expressing the MGMT^P140K-2A-GFP gene using non-transduced cells for dilution. Both populations were exposed to 20 μM BG for one hour followed by increasing doses of BCNU (10, 25, 50 and 100 μM) for two hours (FIG. 4D).
Myoblasts were then allowed to recover for one week after which the proportion of eGFP positive cells was analyzed by flow cytometry, a procedure defined as one cycle of drug selection. […] After three cycles of selection using the same concentration of BCNU, up to 45% of the myoblasts were positive for eGFP, representing a 15-fold enrichment over the initial population. […] In comparison, when starting with a population containing already 35% of gene-targeted myoblasts, over 85% of the cells were expressing eGFP after only one cycle of selection using 50 μM of BCNU (FIG. 4D).
Four weeks post-transduction, gene modified myoblasts containing the MGMT^P140K-2A-GFP cassette inserted at the endogenous CCR5 locus were treated with 50 μM O6BG for two hours followed by increasing doses (range from 10-100 μM) of BCNU for one hour. Cells were then washed with PBS and allowed to proliferate in the presence of […] for seven days before being analyzed by FACS. Where indicated, this procedure was repeated up to two more times. Cells were maintained in the presence of O6BG during their post-treatment expansion to inactivate the endogenous MGMT gene.

[2] = starting population 3%, three cycles, 100 μM BCNU

Molecule | activity [1] | effect of additional cycle of selection (human myoblasts; starting population 3%, beyond three cycles) | proportion of MGMT^P140K-2A-GFP expressing cells (human myoblasts; starting population 3%, one cycle, 20 μM BG then 100 μM BCNU) | enrichment over the initial population (human myoblasts; [2]) | proportion of myoblasts positive for eGFP (human myoblasts; [2]) | proportion of cells expressing eGFP (human myoblasts; starting population 35%, one cycle, 50 μM BCNU)
CCR5 locus exon 3 ZFN target | > 30% |  |  |  |  | 
O=NN(CCCl)C(=O)NCCCl [BCNU, 1,3-bis(2-chloroethyl)-N-nitrosourea] |  | did not allow us to further increase the proportion of eGFP positive cells | 11% | 15 fold | up to 45% | over 85%
